According to patent publication US4401660A, “Ester derivatives of 5-O-mycaminosyl tylonolide and method of using same” (Eli Lilly and Company, priority 1981, dated 1983):
Read-outs that look alike come from different tables or passages of the source.

What was measured:
[1] = system: Haemophilus influenzae Holt; assay: MIC, standard agar-dilution assay (Table II); assay type: cell-based; set-up: unit not given here; conditions: ampicillin-sensitive strain
Experimental: (§1) The MIC's in Table II were determined by standard agar-dilution assays. The MIC's in Table III were obtained using a conventional broth-dilution microtiter test.

[2] = system: Haemophilus influenzae R252; assay: MIC, standard agar-dilution assay (Table II); assay type: cell-based; set-up: unit not given here; conditions: Haemophilus influenzae R252, ampicillin-resistant strain
Experimental: as §1

[3] = system: Staphylococcus aureus S13E; assay: MIC, standard agar-dilution assay (Table II); assay type: cell-based; set-up: unit not given here
Experimental: as §1

[4] = system: Staphylococcus aureus V41; assay: MIC, standard agar-dilution assay (Table II); assay type: cell-based; set-up: unit not given here; conditions: Staphylococcus aureus V41, penicillin-resistant strain
Experimental: as §1

[5] = system: Staphylococcus aureus X1.1; assay: MIC, standard agar-dilution assay (Table II); assay type: cell-based; set-up: unit not given here
Experimental: as §1

[6] = system: Staphylococcus aureus X400; assay: MIC, standard agar-dilution assay (Table II); assay type: cell-based; set-up: unit not given here; conditions: Staphylococcus aureus X400, methicillin-resistant strain
Experimental: as §1

[7] = system: Staphylococcus epidermidis EPI1; assay: MIC, standard agar-dilution assay (Table II); assay type: cell-based; set-up: unit not given here
Experimental: as §1

[8] = system: Staphylococcus epidermidis EPI2; assay: MIC, standard agar-dilution assay (Table II); assay type: cell-based; set-up: unit not given here
Experimental: as §1

[9] = system: Streptococcus Group D 9960; assay: MIC, standard agar-dilution assay (Table II); assay type: cell-based; set-up: unit not given here
Experimental: as §1

[10] = system: Streptococcus Group D X66; assay: MIC, standard agar-dilution assay (Table II); assay type: cell-based; set-up: unit not given here
Experimental: as §1

[11] = system: Streptococcus pneumoniae Park I; assay: MIC, standard agar-dilution assay (Table II); assay type: cell-based; set-up: unit not given here
Experimental: as §1

[12] = system: Streptococcus pyogenes C203; assay: MIC, standard agar-dilution assay (Table II); assay type: cell-based; set-up: unit not given here
Experimental: as §1

Mycoplasma gallisepticum = assay: MIC, broth-dilution microtiter test (Table III); assay type: cell-based; set-up: unit not given here
Experimental: as §1

Mycoplasma hyorhinis = assay: MIC, broth-dilution microtiter test (Table III); assay type: cell-based; set-up: unit not given here
Experimental: as §1

Mycoplasma synoviae = assay: MIC, broth-dilution microtiter test (Table III); assay type: cell-based; set-up: unit not given here
Experimental: as §1

[13] = system: Pasteurella haemolytica 22C; assay: MIC, broth-dilution microtiter test (Table III); assay type: cell-based; set-up: unit not given here
Experimental: as §1

[14] = system: Pasteurella haemolytica 23C; assay: MIC, broth-dilution microtiter test (Table III); assay type: cell-based; set-up: unit not given here
Experimental: as §1

[15] = system: Pasteurella haemolytica 41D; assay: MIC, broth-dilution microtiter test (Table III); assay type: cell-based; set-up: unit not given here
Experimental: as §1

[16] = system: Pasteurella multocida 17E; assay: MIC, broth-dilution microtiter test (Table III); assay type: cell-based; set-up: unit not given here; conditions: bovine isolate
Experimental: as §1

[17] = system: Pasteurella multocida 22A; assay: MIC, broth-dilution microtiter test (Table III); assay type: cell-based; set-up: unit not given here
Experimental: as §1

[18] = system: Pasteurella multocida 40G; assay: MIC, broth-dilution microtiter test (Table III); assay type: cell-based; set-up: unit not given here
Experimental: as §1

[19] = system: Pasteurella multocida 60A; assay: MIC, broth-dilution microtiter test (Table III); assay type: cell-based; set-up: unit not given here; conditions: avian isolate
Experimental: as §1

[20] = system: Pasteurella multocida 68C; assay: MIC, broth-dilution microtiter test (Table III); assay type: cell-based; set-up: unit not given here
Experimental: as §1

Staphylococcus aureus = assay: MIC, broth-dilution microtiter test (Table III); assay type: cell-based; set-up: unit not given here
Experimental: as §1

Streptococcus sp. 80 = assay: MIC, broth-dilution microtiter test (Table III); assay type: cell-based; set-up: unit not given here
Experimental: as §1

[21] = system: Streptococcus pyogenes C203; assay: ED50 in mice with experimental infections (Table IV); assay type: in vivo; conditions: Streptococcus pyogenes, doses given 1 and 4 hours postinfection
Experimental: The OMT ester derivatives of this invention have shown in vivo antimicrobial activity against experimental bacterial infections caused by gram-positive bacteria. When two doses of test compound were administered to mice with experimental infections, the activity observed was measured as an ED50 value [effective dose in mg/kg to protect 50% of the test animals: see Warren Wick, et al., J. Bacteriol. 81, 233-235 (1961)].
^a mg/kg × 2; doses given 1 and 4 hours postinfection

[22] = C203, oral, read-out: ED50, Oral
[23] = C203, sc, subcutaneous, read-out: ED50, Subcutaneous

| SMILES | minimal inhibitory concentration (MIC) [1] | minimal inhibitory concentration (MIC) [2] | minimal inhibitory concentration (MIC) [3] | minimal inhibitory concentration (MIC) [4] | minimal inhibitory concentration (MIC) [5] | minimal inhibitory concentration (MIC) [6] | minimal inhibitory concentration (MIC) [7] | minimal inhibitory concentration (MIC) [8] | minimal inhibitory concentration (MIC) [9] | minimal inhibitory concentration (MIC) [10] | minimal inhibitory concentration (MIC) [11] | minimal inhibitory concentration (MIC) [12] | minimal inhibitory concentration (MIC) (Mycoplasma gallisepticum) | minimal inhibitory concentration (MIC) (Mycoplasma hyorhinis) | minimal inhibitory concentration (MIC) (Mycoplasma synoviae) | minimal inhibitory concentration (MIC) [13] | minimal inhibitory concentration (MIC) [16] | minimal inhibitory concentration (MIC) [19] | minimal inhibitory concentration (MIC) (Staphylococcus aureus) | minimal inhibitory concentration (MIC) (Streptococcus sp. 80) | other results |
| --- | --- | --- | --- | --- | --- | --- | --- | --- | --- | --- | --- | --- | --- | --- | --- | --- | --- | --- | --- | --- | --- |
| CCC(=O)OC1C(C)OC(OC2C(CC=O)CC(C)C(=O)C=CC(C)=CC(CO)C(CC)OC(=O)CC(O)C2C)C(OC(=O)CC)C1N(C)C (stereo not drawn) [Compound 4] | 4 | 4 | 2 | 4 | 2 | 2 | 1 | 4 | 2 | 1 | 8 | 0.5 | 0.39 | 1.56 | 0.78 | 6.25 | 3.12 | 3.12 | 1.56 | < 0.78 | minimal inhibitory concentration (MIC) [14]: 6.25; minimal inhibitory concentration (MIC) [15]: 12.5; minimal inhibitory concentration (MIC) [17]: 3.12; minimal inhibitory concentration (MIC) [18]: 6.25; minimal inhibitory concentration (MIC) [20]: 1.56; ED50 [21, 22]: 167 mg/kg; ED50 [21, 23]: 5.7 mg/kg |
| CCC(=O)OC1C(OC2C(CC=O)CC(C)C(=O)C=CC(C)=CC(COC(C)=O)C(CC)OC(=O)CC(O)C2C)OC(C)C(O)C1N(C)C (stereo not drawn) [Compound 11] | 4 | 4 | 0.5 | 1 | 0.5 | 1 | 0.5 | 0.5 | 1 | 1 | 0.25 | 0.5 | 0.39 | 12.5 | 0.39 | – | 25 | 50 | 6.25 | 1.56 | ED50 [21, 22]: > 150 mg/kg; ED50 [21, 23]: 5.3 mg/kg |
| CCC1OC(=O)CC(O)C(C)C(OC2OC(C)C(O)C(N(C)C)C2OC(=O)Cc2ccccc2)C(CC=O)CC(C)C(=O)C=CC(C)=CC1CO (stereo not drawn) [Compound 52, 2'-O-(Phenylacetyl)-OMT] | 2 | 0.5 | 1 | 1 | 0.5 | 2 | 0.5 | 2 | 1 | 0.5 | 0.06 | 0.25 | 3.12 | 3.12 | 1.56 | 25 | 3.12 | 1.56 | 1.56 | 0.78 | minimal inhibitory concentration (MIC) [14]: 12.5; minimal inhibitory concentration (MIC) [15]: 6.25; minimal inhibitory concentration (MIC) [17]: 3.12; minimal inhibitory concentration (MIC) [18]: 3.12; minimal inhibitory concentration (MIC) [20]: 6.25; ED50 [21, 22]: 92 mg/kg; ED50 [21, 23]: 2.1 mg/kg |
| CCC1OC(=O)CC(O)C(C)C(OC2OC(C)C(OC(C)=O)C(N(C)C)C2OC(C)=O)C(CC=O)CC(C)C(=O)C=CC(C)=CC1COC(=O)C(Cl)Cl (stereo not drawn) [Compound 66, 2',4'-Di-O-acetyl-23-O-dichloroacetyl-OMT] | 2 | 1 | 1 | 2 | 1 | 2 | 1 | 2 | 2 | 1 | 0.125 | 0.25 | 1.56 | 6.25 | 1.56 | 25 | 3.12 | 6.25 | 3.12 | < 0.78 | minimal inhibitory concentration (MIC) [14]: 12.5; minimal inhibitory concentration (MIC) [15]: 25; minimal inhibitory concentration (MIC) [17]: 3.12; minimal inhibitory concentration (MIC) [18]: 3.12; minimal inhibitory concentration (MIC) [20]: 3.12 |
| CCC1OC(=O)CC(O)C(C)C(OC2OC(C)C(O)C(N(C)C)C2OC(C)=O)C(CC=O)CC(C)C(=O)C=CC(C)=CC1COC(=O)C12CC3CC(CC(C3)C1)C2 (stereo not drawn) [Compound 69] | 8 | 16 | 1 | 1 | 1 | 1 | 1 | 1 | 2 | 2 | 0.5 | 1 | 0.78 | 3.12 | 1.56 | 25 | 12.5 | 12.5 | 6.25 | 1.56 | minimal inhibitory concentration (MIC) [14]: 25; minimal inhibitory concentration (MIC) [15]: 25; minimal inhibitory concentration (MIC) [17]: 12.5; minimal inhibitory concentration (MIC) [18]: 12.5; minimal inhibitory concentration (MIC) [20]: 12.5 |
| CCC1OC(=O)CC(O)C(C)C(OC2OC(C)C(O)C(N(C)C)C2O)C(CC=O)CC(C)C(=O)C=CC(C)=CC1COC(=O)C12CC3CC(CC(C3)C1)C2 (stereo not drawn) [Compound 70] | 8 | 16 | 1 | 1 | 1 | 1 | 1 | 1 | 2 | 2 | 0.5 | 1 | 1.56 | 3.12 | 0.39 | 25 | 12.5 | 25 | 6.25 | 1.56 | minimal inhibitory concentration (MIC) [14]: 25; minimal inhibitory concentration (MIC) [15]: 25; minimal inhibitory concentration (MIC) [17]: 12.5; minimal inhibitory concentration (MIC) [18]: 12.5; minimal inhibitory concentration (MIC) [20]: 12.5 |
